According to patent US20230390322A1, “HIGH CONCENTRATION METHYLCOBALAMIN OR COMBINATION OF METHYL- AND HYDROXY-COBALAMIN FOR THE TREATMENT OF COBALAMIN C DEFICIENCY DISORDERS” (THE U.S.A., as represented by the Secretary, Department of …, priority 2020, published 2023):
Entries after “also recorded” stand apart in the source; their conditions may differ.

Assays:
[1] = test system: Mmachc^de13/de13 mice; experiment: Survival of treated Mmachc^de13/de13 mutant mice; assay type: in vivo, mouse; details: for median survival: Mmachc^de13/de13 mutants, pregnant dams treated weekly (1 mg) throughout gestation and weaning (prenatal treatment); for mutants alive at 100 days: prenatal treatment
Procedure: (§1) Survival and phenotype in Mmachc mice: Mendelian ratios at birth, survival, and relative weight: To determine survival, litters were assessed daily after birth and dead pups were noted, removed, and genotyped when tissue was available. Age at time of death was recorded. Weights were measured monthly and the weight of mutants relative to average weight of control littermates was calculated.
(§2) Cobalamin Treatment: OHCbl and MeCbl were obtained from College Pharmacy (Colorado Spring, CO) or prepared at 25 mg/ml concentration and subsequently diluted with 0.9% saline solution to a working solution of 5 mg/ml. OHCbl or MeCbl was delivered by intraperitoneal injections for pups ages P0-P14 and subcutaneous injections for mice post weaning. For in utero treatment studies, pregnant dams were treated with 1 mg/week (100 mg/kg) via subcutaneous injections throughout pregnancy and weaning. For chronic therapy 50 μg/kg dosing was used.
(§3) AAV Vector Design, Production, and Delivery: Two adeno associated viral vectors were designed: AAVrh10-Mmachc, containing the murine Mmachc coding sequence packaged into a rh10 serotype capsid, and AAV9-coMMACHC, containing a codon optimized human MMACHC coding sequence packaged into an AAV9 serotype capsid. AAVs were produced as described previously. AAV viral vectors were delivered via intrahepatic injection at a dose of 1×10^11 GC per pup in the neonatal period (P0-2). ddPCR was conducted using a CMV/CBA probe spanning the promoter/enhancer, reference albumin Dissection of Pregnant Dams: Pregnant dams were either untreated, treated with OHCbl, MeCbl or the combination (1 mg per week) during pregnancy as described and sacrificed at E18.5. Embryos were photographed, tails were collected for genotyping, and the remaining tissue was collected and flash frozen. Embryo weights were measured and the weight of mutants relative to average weight of control littermates was calculated. Crown to rump length of each embryo was also determined using ImageJ software.
(§4) Statistics: Graphpad Prism Software was used for statistical analysis. All data are presented as mean±SD and significance is indicated as follows: p<0.05(*), p<0.01(**), p<0.001 (***), and p<0.0001(****). Kaplan-Meier survival curve significance was determined using the Log-Rank Mantel-Cox test, genotype distribution significance was assessed using the chi-square test, and all other statistics were calculated using the unpaired t-test.

[2] = test system: Mmachc^de12/de12 mice; experiment: Survival of treated Mmachc^de12/de12 mutant mice; assay type: in vivo, mouse; details: prenatal treatment; for median survival: Mmachc^de12/de12 mutants, OHCbl 1 mg, MeCbl 1 mg or 0.5 mg each weekly
Procedure: as §1, §2, §4

[3] = test system: Mmachc^del2 mouse line; experiment: Genotype distribution at birth (P0-2), Mmachc^del2 litters; assay type: in vivo; details: mice at birth; prenatal treatment
Procedure: (§5) Genotyping and breeding scheme: Tail biopsies were performed routinely at 10-15 days of life or in rare cases in the first day of life and DNA was extracted using the Qiagen DNEASY® Spin Kit or the MYTAQ® Extract-PCR Kit. Mmachc genotype was determined by a fluorescent PCR method described previously^22 or by Droplet Digital PCR (ddPCR) Mutation Detection Assay (Bio-Rad). ddPCR genotyping was performed by mixing 2 ul of 1:10 diluted DNA, 1.1 ul probe-primer mix, and 7.9 ul water. The primer-probe mix contained the wild-type/mutant primer and fluorescent FAM and HEX probes targeting the mutant and wild-type alleles, respectively. Sample droplets were generated by the QX200 Droplet Digital PCR system, PCR amplified in a thermocycler, and DNA quantified by droplet fluorescence. Mmachc homozygous mutant mice and their heterozygote or wild type control littermates were generated from heterozygous parental crosses unless otherwise noted. In order to eliminate the Pdeb(rdl) mutation present in the FVB/N genetic background which causes retinal degeneration, Mmachc carrier mice were crossed to C57BL/6J mice. Subsequent generations of Mmachc carriers were genotyped for the Pdeb(rdl) mutation using a published PCR method (Gimenez and Montouliu Lab Anim 35, 153-6 (2001)), and mice homozygous for the functional Pdeb(rdl) allele were selected for further breeding. Mice were fed regular or high fat chow and weaned at P21-28.
as §1, §2, §4

[4] = test system: Mmachc^del3 mouse line; experiment: Genotype distribution at birth (P0-2), Mmachc^del3 litters; assay type: in vivo; details: mice at birth; prenatal treatment
Procedure: as §5, §1, §2, §4

[5] = test system: Mmachc^del3 mouse line; experiment: Genotype distribution at E18.5, Mmachc^del3 litters; assay type: in vivo; details: mice at E18.5; prenatal treatment
Procedure: as §3, §4

[6] = test system: Mmachc^de13/de13 embryos; experiment: E18.5 embryo growth parameters, Mmachc^de13/de13; assay type: in vivo, mouse
Procedure: as §3

[7] = test system: Mmachc^de13/de13 mice; experiment: Postnatal weight relative to control littermates, Mmachc^de13/de13; assay type: in vivo, mouse
Procedure: as §1

[8] = test system: Mmachc^de13/de13 mice; experiment: Plasma metabolite measurements (GC-MS), Mmachc^de13/de13; assay type: in vivo, mouse; details: for plasma methylmalonic acid: P0-P30 (two weeks); for plasma cystathionine: P0-P30
Procedure: Metabolite measurements: Blood samples were collected in heparinized capillary tubes and centrifuged at 2000 rpm for 10 min at 4C. Plasma was diluted 1:40 in water for methylmalonic acid and methylcitrate measurements and undiluted plasma was used for homocysteine and cystathionine measurements. Plasma concentrations were determined by gas chromatography-mass spectrometry (GC-MS).

[9] = test system: Mmachc^de13/de13 mice; experiment: Pigmentation / clinical appearance, Mmachc^de13/de13; assay type: in vivo, mouse
[10] = test system: Mmachc^de13/de13 mice; experiment: Retinal histology and electroretinography, Mmachc^de13/de13; assay type: in vivo, mouse
From the text: The severe neonatal lethality of this model in combination with the fact that the mouse retina develops until ˜P21 made it challenging to study retinal pathology in untreated mice.

[11] = test system: cblC patients; experiment: Natural history cohort of cblC patients (NCT00078078); assay type: in vivo, human
Procedure: Extensive data was collected on a large natural history cohort of 61 patients studied every 2-3 years over 15 yrs to evaluate the impact of different approaches to clinical management/cobalamin therapy on disease outcomes (ClinicalTrial.gov ID: NCT00078078). […] Six patients (ages 2.2-3.8 years), who received higher doses of hydroxocobalamin (5-20 mg/day or 0.3-1.4 mg/kg/d) starting between 6 mo-1 yr, presented with variable macular degeneration and improved average FSIQ and ABC scores in the normal range (FSIQ 91.6±5.3; ABC 88.2±10.7), compared to our historic scores in young children <10 y of age on <0.3 mg/kg/day (FSIQ 70.69±19.11, ABC 79.83±17.42).

[12] = test system: Mmachc^de12/de12 embryos; experiment: E18.5 embryo weight and pathology, Mmachc^de12/de12; assay type: in vivo, mouse; details: prenatal treatment
Procedure: as §3

[13] = test system: Mmachc^de12/de12 mice; experiment: Postnatal weight, Mmachc^de12/de12; assay type: in vivo, mouse; details: prenatal treatment
Procedure: as §1

[14] = test system: Mmachc^de12/de12 mice; experiment: Pigmentation / clinical appearance, Mmachc^de12/de12; assay type: in vivo, mouse; details: prenatal treatment
[15] = 7-13 months, both prenatal OHCbl and prenatal OHCbl+weekly groups
[16] = 7-13 months, prenatal+postnatal OHCbl
[17] = six patients ages 2.2-3.8 years, 5-20 mg/day or 0.3-1.4 mg/kg/d starting between 6 mo-1 yr
[18] = young children <10 y of age on <0.3 mg/kg/day

C/C1=C2/[N-][C@H]([C@H](CC(N)=O)[C@@]2(C)CCC(=O)NC[C@@H](C)OP(=O)([O-])O[C@H]2[C@@H](O)[C@@H](n3cnc4cc(C)c(C)cc43)O[C@@H]2CO)[C@]2(C)N=C(/C(C)=C3N=C(/C=C4N=C1[C@@H](CCC(N)=O)C\4(C)C)[C@@H](CCC(N)=O)[C@]\3(C)CC(N)=O)[C@@H](CCC(N)=O)[C@]2(C)CC(N)=O.[Co+3].[OH-] [OHCbl, hydroxocobalamin]
median survival [1]: 109 days | mutants alive at 100 days [1]: 50% | longest surviving ([1]; prenatal+weekly OHCbl): > 1 year | median survival [2]: 25 days | genotype distribution +/+ (%) [3]: 29% | genotype distribution +/+ n [3]: 76 | genotype distribution +/− (%) [3]: 66% | genotype distribution +/− n [3]: 171 | genotype distribution −/− (%) [3]: 5% | genotype distribution −/− n [3]: 13 | genotype distribution +/+ (%) [4]: 30% | genotype distribution +/+ n [4]: 105 | genotype distribution +/− (%) [4]: 54% | genotype distribution +/− n [4]: 192 | genotype distribution −/− (%) [4]: 16% | genotype distribution −/− n [4]: 57 | genotype distribution +/+ (%) [5]: (23) % | genotype distribution +/+ n [5]: 14 | genotype distribution +/− (%) [5]: (46) % | genotype distribution +/− n [5]: 28 | genotype distribution −/− (%) [5]: (31) % | genotype distribution −/− n [5]: 19 | embryo weight normalized to control littermates ([6]; de13/de13, prenatal treatment, n=11): 0.8204±0.03641 | anterioposterior abdominal dimension (APD) ([6]; prenatal treatment): did not improved | crown rump length (IUGR) ([6]; prenatal treatment): did not rescue the IUGR | relative weight of mutant mice at two weeks ([7]; prenatal OHCbl): improved the weight vs untreated | relative weight of mutant mice at two weeks ([7]; prenatal OHCbl+weekly): improved the weight vs untreated | homocysteine [8, 15]: remained elevated vs controls but was lower | methylmalonic acid [8, 15]: remained elevated vs controls and untreated mutants | methylmalonic acid levels in the blood [MMA] [8, 16]: > 1500 µM | total homocysteine levels (tHCYS) [8, 16]: 31 µM | plasma methylmalonic acid ([8]; prenatal treatment only): no decrease | plasma methylmalonic acid ([8]; weekly (chronic) OHCbl): decreased | plasma cystathionine ([8]; prenatal treatment): elevated compared to untreated mutants; also recorded: increased | homocysteine levels ([8]; prenatal and weekly treatment): did not improve | homocysteine levels ([8]; prenatal treatment): did not improve | pigmentation of ears and tail ([9]; long term (prenatal+weekly) treatment): decreased hypopigmentation | retinal histology ([10]; 6-9 months of age): within normal limits | electroretinography (ERG) ([10]; prenatal OHCbl/AAV9 at 9 months, OHCbl at 6 months): diminished scotopic B waves | adverse events ([11]; adults and children on 25 mg/day monitored 2-8 years): no significant adverse events | ABC score ([11]; single patient, 5 mg): 79 | eye exam ([11]; single patient, 5 mg): normal | average ABC score [11, 17]: 88.2±10.7 | average FSIQ score [11, 17]: 91.6±5.3 | ABC score (historic) [11, 18]: 79.83±17.42 | FSIQ score (historic) [11, 18]: 70.69±19.11

C/C1=C2/[N-][C@H]([C@H](CC(N)=O)[C@@]2(C)CCC(=O)NC[C@H](C)OP(=O)([O-])O[C@H]2[C@@H](O)[C@@H](n3cnc4cc(C)c(C)cc43)O[C@@H]2CO)[C@]2(C)N=C(/C(C)=C3N=C(/C=C4N=C1[C@@H](CCC(N)=O)C\4(C)C)[C@@H](CCC(N)=O)[C@]\3(C)CC(N)=O)[C@@H](CCC(N)=O)[C@]2(C)CC(N)=O.[CH3-].[Co+3] [MeCbl, methylcobalamin]
median survival [1]: 144 days | mutants alive at 100 days [1]: 100% | median survival [2]: 78 days | mutants survived beyond 30 days [2]: 100% | genotype distribution +/+ (%) [3]: 18% | genotype distribution +/+ n [3]: 14 | genotype distribution +/− (%) [3]: 53% | genotype distribution +/− n [3]: 41 | genotype distribution −/− (%) [3]: 29% | genotype distribution −/− n [3]: 22 | genotype distribution +/+ (%) [4]: 31% | genotype distribution +/+ n [4]: 38 | genotype distribution +/− (%) [4]: 63% | genotype distribution +/− n [4]: 76 | genotype distribution −/− (%) [4]: 6% | genotype distribution −/− n [4]: 7 | weight of E18.5 embryos normalized to control values ([12]; weekly subcutaneous injection of dams, untreated 76.4%): 89.4 % of controls | pathology at E18.5 ([12]; H&E): ameliorated the pathology in the lungs, liver and brown fat | size relative to littermates at 3 months ([7]; prenatal treatment): 48% | growth at 1 month [13]: appeared growth impaired but this was not significant at 1 month | plasma cystathionine ([8]; prenatal treatment): reduced cystathionine to control levels; also recorded: decreased to control levels | homocysteine levels ([8]; prenatal treatment): did not improve | pigmentation of fur, ears and tails ([9]; prenatal treatment): minimal pigmentation differences | pigmentation of the ears [14]: improvement in pigmentation of the ears
